What follows are compounds tested against BTK (Homo sapiens (Human), UniProt Q06187) (assay: In Vitro BTK Kinase Assay: Btk-PolyGAT-LS Assay). Settings: BTK enzyme 0.25 nM, ATP 10 μM, polyGAT 100 nM, 30 minutes incubation, TRF readout; read-out: IC50.
BTK, sequence (Q06187 whole entry): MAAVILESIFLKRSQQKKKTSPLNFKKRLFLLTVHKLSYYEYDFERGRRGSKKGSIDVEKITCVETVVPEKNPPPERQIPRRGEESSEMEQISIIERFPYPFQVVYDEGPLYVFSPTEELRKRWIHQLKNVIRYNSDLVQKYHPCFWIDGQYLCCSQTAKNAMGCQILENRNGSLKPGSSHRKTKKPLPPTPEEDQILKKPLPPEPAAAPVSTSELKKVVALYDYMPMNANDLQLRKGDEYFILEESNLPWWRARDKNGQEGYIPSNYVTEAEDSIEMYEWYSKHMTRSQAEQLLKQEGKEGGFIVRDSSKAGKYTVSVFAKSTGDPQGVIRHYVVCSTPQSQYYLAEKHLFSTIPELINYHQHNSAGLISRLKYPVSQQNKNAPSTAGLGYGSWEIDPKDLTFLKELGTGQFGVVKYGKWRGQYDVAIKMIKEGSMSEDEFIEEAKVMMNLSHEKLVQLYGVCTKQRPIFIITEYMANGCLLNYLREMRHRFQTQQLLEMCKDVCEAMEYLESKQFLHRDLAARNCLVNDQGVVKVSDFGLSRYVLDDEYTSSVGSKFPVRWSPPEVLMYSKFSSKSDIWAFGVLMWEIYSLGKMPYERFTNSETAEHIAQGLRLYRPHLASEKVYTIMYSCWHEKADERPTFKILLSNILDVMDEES
Assay type: biochemical
Method: The purpose of the BTK in vitro assay is to determine compound potency against BTK through the measurement of IC50. […] For a typical assay, a 24 μL aliquot of a ATP/peptide master mix (final concentration; ATP 10 μM, polyGAT 100 nM) in kinase buffer (10 mM Tris-HCl pH 7.5, 10 mM MgCl2, 200 μM Na3PO4, 5 mM DTT, 0.01% Triton X-100, and 0.2 mg/ml casein) is added to each well. […] The assay is incubated for 30 minutes before being stopped with 28 μL of a 50 mM EDTA solution. […] The plate is covered and incubated for 45 minutes at room temperature.
With `C=CC(=O)N1CCC[C@H](COc2nc(-c3cnn(C)c3)cc3nccn23)C1` [Example 40] the IC50 was 10 to 1000 nM. For `C=CC(=O)N1CCC[C@@H](COc2nc(-c3cnn(C)c3)cc3nccn23)C1` [Example 41], the IC50 was 10 to 1000 nM. Work on `C=CC(=O)N1CCC(COc2nc(-c3cnn(C)c3)cc3nccn23)C1` (stereo not shown) [Example 42] yielded an IC50 of 10 to 1000 nM. `C=CC(=O)N1CCC(COc2nc(-c3cnn(C)c3)cc3nccn23)CC1` [Example 44] was tested, and the IC50 was 10 to 1000 nM. `C=CC(=O)N1CCC[C@@H](Oc2nc(-c3cnn(C)c3)cc3nccn23)C1` [Example 45] gave an IC50 of 10 to 1000 nM. `C#CC(=O)N1CCC[C@H](COc2nc(-c3cnn(C)c3)cc3nccn23)C1` [Example 46] gave an IC50 of 1 to 10 nM. For `CC#CC(=O)N1CCC[C@H](COc2nc(-c3cnn(C)c3)cc3nccn23)C1` [Example 47], the IC50 was 10 to 1000 nM. `C=CC(=O)NC1CCCC(Oc2nc(-c3cnn(C)c3)cc3nccn23)C1` (stereo not shown) [Example 48] showed an IC50 of 1 to 10 nM. For `C#CC(=O)N1CCC(Oc2nc(-c3cnn(C)c3)cc3nccn23)CC1` [Example 49], the IC50 was 10 to 1000 nM. For `CC#CC(=O)N1CCC[C@@H](COc2nc(-c3cnn(C)c3)cc3nccn23)C1` [Example 51], the IC50 was 10 to 1000 nM. In the case of `CC#CC(=O)NC1CCCC(Oc2nc(-c3cnn(C)c3)cc3nccn23)C1` (stereo not shown) [Example 52], the IC50 is reported as 1 to 10 nM. `C#CC(=O)N1CCC[C@@H](Oc2nc(-c3cnn(C)c3)cc3nccn23)C1` [Example 53] gave an IC50 of 1 to 10 nM. `C=CC(=O)N1CCC[C@@H](Oc2cc(-c3cnn(C)c3)cc3nccn23)CC1` [Example 65, 1-[(4R)-4-[7-(1-methylpyrazol-4-yl)imidazo[1,2-a]pyridin-5-yl]oxyazepan-1-yl]prop-2-en-1-one] showed an IC50 of 1 to 10 nM. With `C=CC(=O)N(C)[C@H]1C[C@@H](Oc2nc(-c3cnn(C)c3)cn3nc(N)cc23)C1` [Example 68, N-((cis)-3-((2-amino-6-(1-methyl-1H-pyrazol-4-yl)pyrazolo[1,5-a]pyrazin-4-yl)oxy)cyclobutyl)-N-methylacrylamide] the IC50 was less than 1 nM. With `C=CC(=O)N1CCC[C@@H](Oc2nc(-c3ccccc3)cn3nccc23)CC1` [Example 73, (R)-1-(4-((6-phenylpyrazolo[1,5-a]pyrazin-4-yl)oxy)azepan-1-yl)prop-2-en-1-one] the IC50 was 1 to 10 nM. Work on `C=CC(=O)N1CCC[C@@H](Oc2nc(-c3cc(OC)ncn3)cn3nccc23)CC1` [Example 74, (R)-1-(4-((6-(6-methoxypyrimidin-4-yl)pyrazolo[1,5-a]pyrazin-4-yl)oxy)azepan-1-yl)prop-2-en-1-one] yielded an IC50 of 10 to 1000 nM. In the case of `C=CC(=O)N1CCC[C@@H](Oc2nc(-c3nc(C)co3)cn3nccc23)CC1` [Example 75, (R)-1-(4-((6-(4-methyloxazol-2-yl)pyrazolo[1,5-a]pyrazin-4-yl)oxy)azepan-1-yl)prop-2-en-1-one], the IC50 is reported as 10 to 1000 nM. `C=CC(=O)N1CCC[C@@H](Oc2nc(-c3csc(C)n3)cn3nccc23)CC1` [Example 76, (R)-1-(4-((6-(2-methylthiazol-4-yl)pyrazolo[1,5-a]pyrazin-4-yl)oxy)azepan-1-yl)prop-2-en-1-one] was tested, and the IC50 was 1 to 10 nM. With `C=CC(=O)N1CCC[C@@H](Oc2nc(-c3cnc(C)s3)cn3nccc23)CC1` [Example 77, (R)-1-(4-((6-(2-methylthiazol-5-yl)pyrazolo[1,5-a]pyrazin-4-yl)oxy)azepan-1-yl)prop-2-en-1-one] the IC50 was less than 1 nM. `C=CC(=O)N1CCC[C@@H](Oc2nc(-c3cc(C)ns3)cn3nccc23)CC1` [Example 78, (R)-1-(4-((6-(3-methylisothiazol-5-yl)pyrazolo[1,5-a]pyrazin-4-yl)oxy)azepan-1-yl)prop-2-en-1-one] was tested, and the IC50 was 1 to 10 nM. For `C=CC(=O)N(C)[C@H]1C[C@@](C)(Oc2nc(-c3cn[nH]c3)cn3nccc23)C1` [Example 80, N-((1s,3s)-3-((6-(1H-pyrazol-4-yl)pyrazolo[1,5-a]pyrazin-4-yl)oxy)-3-methylcyclobutyl)-N-methylacrylamide], the IC50 was less than 1 nM. `C=CC(=O)NC1CC2CC1CC2Oc1cc(-c2cnn(C)c2)cn2nccc12` (stereo not shown) [Example 82, N-(5-((6-(1-methyl-1H-pyrazol-4-yl)pyrazolo[1,5-a]pyridin-4-yl)oxy)bicyclo[2.2.1]heptan-2-yl)acrylamide] gave an IC50 of 1 to 10 nM. `C=CC(=O)N1C[C@H](COc2cc(-c3cnn(C)c3)cn3nccc23)OC(C)(C)C1` [Example 83, (R)-1-(2,2-dimethyl-6-(((6-(1-methyl-1H-pyrazol-4-yl)pyrazolo[1,5-a]pyridin-4-yl)oxy)methyl)morpholino)prop-2-en-1-one] gave an IC50 of 1 to 10 nM. For `C=CC(=O)NC1CN(c2cc(-c3cnn(C)c3)cn3nccc23)CC12CC2` (stereo not shown) [Example 87, N-(5-(6-(1-methyl-1H-pyrazol-4-yl)pyrazolo[1,5-a]pyridin-4-yl)-5-azaspiro[2.4]heptan-7-yl)acrylamide], the IC50 was 10 to 1000 nM. For `C=CC(=O)N1CC2CC1CC2Nc1cc(-c2cnn(C)c2)cn2nccc12` (stereo not shown) [Example 88, 1-(5-((6-(1-methyl-1H-pyrazol-4-yl)pyrazolo[1,5-a]pyridin-4-yl)amino)-2-azabicyclo[2.2.1]heptan-2-yl)prop-2-en-1-one], the IC50 was 1 to 10 nM. Work on `C=CC(=O)NC1CN(c2cc(-c3cnn(C)c3)cn3nccc23)CC(F)(F)C1` (stereo not shown) [Example 89, N-(5,5-difluoro-1-(6-(1-methyl-1H-pyrazol-4-yl)pyrazolo[1,5-a]pyridin-4-yl)piperidin-3-yl)acrylamide] yielded an IC50 of 10 to 1000 nM. For `C=CC(=O)N1CCCN(Cc2nc(-c3cnn(C)c3)cn3nccc23)CC1` [Example 90, 1-(4-((6-(1-methyl-1H-pyrazol-4-yl)pyrazolo[1,5-a]pyrazin-4-yl)methyl)-1,4-diazepan-1-yl)prop-2-en-1-one], the IC50 was 10 to 1000 nM. Compound `C=CC(=O)N1CCCC(N(C)Cc2nc(-c3cnn(C)c3)cn3nccc23)C1` (stereo not shown) [Example 91, 1-(3-(methyl((6-(1-methyl-1H-pyrazol-4-yl)pyrazolo[1,5-a]pyrazin-4-yl)methyl)amino)piperidin-1-yl)prop-2-en-1-one] has an IC50 of 10 to 1000 nM. With `CN(C)C/C=C/C(=O)N[C@H]1CCC[C@@H](Oc2nc(-c3cnn(C)c3)cn3ncc(F)c23)C1` [Example 94, (E)-4-(dimethylamino)-N-((1S,3R)-3-((3-fluoro-6-(1-methyl-1H-pyrazol-4-yl)pyrazolo[1,5-a]pyrazin-4-yl)oxy)cyclohexyl)but-2-enamide] the IC50 was 10 to 1000 nM. Work on `C=CC(=O)N(C1CC1)[C@H]1C[C@H](Oc2nc(-c3cnn(C)c3)cn3nccc23)C1` [Example 102, N-cyclopropyl-N-((trans)-3-((6-(1-methyl-1H-pyrazol-4-yl)pyrazolo[1,5-a]pyrazin-4-yl)oxy)cyclobutyl)acrylamide] yielded an IC50 of 1 to 10 nM. For `C/C=C/C(=O)Nc1cc(Oc2nc(-c3cnn(C)c3)cn3nccc23)ccc1C` [Example 131, (E)-N-(2-methyl-5-((6-(1-methyl-1H-pyrazol-4-yl)pyrazolo[1,5-a]pyrazin-4-yl)oxy)phenyl)but-2-enamide], the IC50 was 10 to 1000 nM. `C=CC(=O)NCc1cccc(Oc2nc(-c3cnn(C)c3)cn3nccc23)c1` [Example 132, N-(3-((6-(1-methyl-1H-pyrazol-4-yl)pyrazolo[1,5-a]pyrazin-4-yl)oxy)benzyl)acrylamide] gave an IC50 of 10 to 1000 nM. Work on `Cn1cc(-c2cn3nccc3c(Oc3cccc(NC(=O)C#CC4CC4)c3Cl)n2)cn1` [Example 133, N-(2-chloro-3-((6-(1-methyl-1H-pyrazol-4-yl)pyrazolo[1,5-a]pyrazin-4-yl)oxy)phenyl)-3-cyclopropylpropiolamide] yielded an IC50 of less than 1 nM. `Cc1c(NC(=O)C2=CCC2)cc(F)cc1Oc1nc(-c2cnn(C)c2)cn2nccc12` [Example 134, N-(5-fluoro-2-methyl-3-((6-(1-methyl-1H-pyrazol-4-yl)pyrazolo[1,5-a]pyrazin-4-yl)oxy)phenyl)cyclobut-1-ene-1-carboxamide] showed an IC50 of 1 to 10 nM. `Cc1c(NC(=O)/C=C/CN(C)C2CCC2)cccc1Oc1nc(-c2cnn(C)c2)cn2nccc12` [Example 135, (E)-4-(cyclobutyl(methyl)amino)-N-(2-methyl-3-((6-(1-methyl-1H-pyrazol-4-yl)pyrazolo[1,5-a]pyrazin-4-yl)oxy)phenyl)but-2-enamide] gave an IC50 of 10 to 1000 nM. In the case of `O=C(/C=C/C(F)(F)F)Nc1cccc(Oc2nc(-c3cnn(C4CCOC4)c3)cn3nccc23)c1F` (stereo not shown) [Example 136, (E)-4,4,4-trifluoro-N-(2-fluoro-3-((6-(1-(tetrahydrofuran-3-yl)-1H-pyrazol-4-yl)pyrazolo[1,5-a]pyrazin-4-yl)oxy)phenyl)but-2-enamide], the IC50 is reported as 1 to 10 nM. `C=CC(=O)NC(C)c1cccc(Oc2nc(-c3cnn(C)c3)cn3nccc23)c1C` (stereo not shown) [Example 137, N-(1-(2-methyl-3-((6-(1-methyl-1H-pyrazol-4-yl)pyrazolo[1,5-a]pyrazin-4-yl)oxy)phenyl)ethyl)acrylamide] gave an IC50 of 10 to 1000 nM. Compound `CC#CC(=O)Nc1cncc(Oc2nc(-c3cnn(C)c3)cn3nccc23)c1` [Example 138, N-(5-((6-(1-methyl-1H-pyrazol-4-yl)pyrazolo[1,5-a]pyrazin-4-yl)oxy)pyridin-3-yl)but-2-ynamide] has an IC50 of 1 to 10 nM. With `CN(C)C/C=C/C(=O)N(CC(F)F)[C@H]1CC[C@@H](Oc2nc(-c3cnn(C)c3)cn3nccc23)C1` [Example 147, (E)-N-(2,2-difluoroethyl)-4-(dimethylamino)-N-((1S,3R)-3-((6-(1-methyl-1H-pyrazol-4-yl)pyrazolo[1,5-a]pyrazin-4-yl)oxy)cyclopentyl)but-2-enamide] the IC50 was 1 to 10 nM. With `C=CC(=O)N1C[C@@H]2C[C@H]1C[C@H]2Oc1nc(-c2cnn(C)c2)cn2nccc12` [Example 152, 1-((1S,4S,5R)-5-((6-(1-methyl-1H-pyrazol-4-yl)pyrazolo[1,5-a]pyrazin-4-yl)oxy)-2-azabicyclo[2.2.1]heptan-2-yl)prop-2-en-1-one] the IC50 was 1 to 10 nM.

Source: patent US20240083900A1, “PYRAZOLO[1,5-A]PYRAZINE DERIVATIVES AS BTK INHIBITORS” (BIOGEN MA INC., priority 2020, published 2024)
